This is an account of results in ChEMBL document CHEMBL2073985, “Increase in doxorubicin cytotoxicity by carvedilol inhibition of P-glycoprotein activity” (Biochem Pharmacol, 1999).

The data set addresses ATP-dependent translocase ABCB1 (Homo sapiens, UniProt P08183). Briefly: TP_TRANSPORTER: increase in Calcein intracellular accumulation (Calcein: 50 mg/L, Carvedilol: 10 uM) in Hs578T-Dox cells. It counts as functional, cell-based.

Chain of ATP-dependent translocase ABCB1 (P08183 whole entry): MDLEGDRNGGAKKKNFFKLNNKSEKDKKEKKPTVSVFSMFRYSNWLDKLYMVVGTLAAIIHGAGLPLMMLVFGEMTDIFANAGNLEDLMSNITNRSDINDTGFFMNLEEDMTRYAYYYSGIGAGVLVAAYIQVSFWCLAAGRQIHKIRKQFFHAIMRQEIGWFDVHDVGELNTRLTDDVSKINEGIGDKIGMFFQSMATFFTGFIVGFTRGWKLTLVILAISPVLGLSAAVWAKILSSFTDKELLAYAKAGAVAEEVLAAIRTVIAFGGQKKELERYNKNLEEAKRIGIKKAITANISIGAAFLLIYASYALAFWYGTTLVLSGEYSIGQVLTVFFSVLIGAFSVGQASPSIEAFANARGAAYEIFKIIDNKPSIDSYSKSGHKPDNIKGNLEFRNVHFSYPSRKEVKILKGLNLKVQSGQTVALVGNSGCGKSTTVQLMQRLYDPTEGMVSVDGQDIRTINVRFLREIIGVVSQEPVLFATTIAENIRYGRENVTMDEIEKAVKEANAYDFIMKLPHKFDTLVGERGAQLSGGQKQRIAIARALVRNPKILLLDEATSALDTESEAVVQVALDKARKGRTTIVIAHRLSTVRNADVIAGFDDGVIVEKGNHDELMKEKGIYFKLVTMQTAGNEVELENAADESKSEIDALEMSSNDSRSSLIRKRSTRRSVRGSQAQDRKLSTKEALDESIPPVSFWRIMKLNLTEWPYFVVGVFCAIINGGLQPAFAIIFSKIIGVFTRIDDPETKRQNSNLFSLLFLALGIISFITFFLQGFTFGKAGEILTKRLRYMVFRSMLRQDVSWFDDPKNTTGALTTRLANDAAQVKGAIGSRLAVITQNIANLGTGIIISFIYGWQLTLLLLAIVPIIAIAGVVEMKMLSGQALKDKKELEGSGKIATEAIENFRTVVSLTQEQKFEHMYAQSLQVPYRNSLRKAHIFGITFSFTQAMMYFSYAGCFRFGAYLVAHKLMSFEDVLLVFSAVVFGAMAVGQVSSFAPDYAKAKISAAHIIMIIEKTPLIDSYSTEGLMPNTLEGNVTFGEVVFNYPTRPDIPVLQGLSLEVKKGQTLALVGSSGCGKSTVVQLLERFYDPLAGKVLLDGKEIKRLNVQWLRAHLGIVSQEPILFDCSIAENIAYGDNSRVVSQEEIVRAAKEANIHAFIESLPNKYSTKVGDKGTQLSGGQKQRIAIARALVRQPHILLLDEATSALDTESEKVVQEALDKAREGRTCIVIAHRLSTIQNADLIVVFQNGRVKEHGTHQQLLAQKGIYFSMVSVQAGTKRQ

Regarding `COc1ccccc1OCCNCC(O)COc1cccc2[nH]c3ccccc3c12` (stereo unspecified) [CARVEDILOL], the Activity result was “inhibitor [+]”.
